Patent US11352339B2 (MISSION THERAPEUTICS LIMITED, priority 2016, dated 2022)

The molecules below were run against USP30 (Homo sapiens (Human), UniProt Q70CQ3) (assay: USP30 Biochemical IC50 Assay). Conditions: fluorescence polarisation, TAMRA labelled peptide linked to ubiquitin; 30 min pre-incubation, read after 2 h; read-out: IC50 range.
Chain of USP30 (Q70CQ3 57-517): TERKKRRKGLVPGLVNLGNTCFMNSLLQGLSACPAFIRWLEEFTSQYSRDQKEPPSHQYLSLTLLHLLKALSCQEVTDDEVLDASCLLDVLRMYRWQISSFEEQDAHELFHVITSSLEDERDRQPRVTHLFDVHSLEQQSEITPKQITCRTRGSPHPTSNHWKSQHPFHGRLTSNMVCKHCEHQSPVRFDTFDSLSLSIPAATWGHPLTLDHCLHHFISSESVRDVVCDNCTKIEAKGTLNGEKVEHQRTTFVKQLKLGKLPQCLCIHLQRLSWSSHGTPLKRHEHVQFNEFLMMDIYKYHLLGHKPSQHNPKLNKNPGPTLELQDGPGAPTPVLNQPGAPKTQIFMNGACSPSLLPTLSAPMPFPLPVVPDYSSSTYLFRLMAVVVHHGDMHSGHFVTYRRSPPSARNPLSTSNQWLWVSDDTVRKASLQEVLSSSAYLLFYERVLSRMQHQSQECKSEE
Description: Reactions were performed in duplicate in black 384 well plates (small volume, Greiner 784076) in a final reaction volume of 21 μl. Either 1 μl of 50% DMSO or diluted compound was added to the plate. […] Enzyme and compound were incubated for 30 min at room temp. Reactions were initiated by the addition of 50 nM of TAMRA labelled peptide linked to ubiquitin via an iso-peptide bond as fluorescence polarisation substrate. Reactions were read immediately after addition of substrate and following a 2 h incubation at room temperature. Readings were performed on a Pherastar Plus (BMG Labtech). λ Excitation 540 nm; λ Emission 590 nm.
`N#Cc1cccc(-c2cnc3[nH]c(C4CCN(C#N)C4)nc3c2)c1` (centres unmarked) [Example 85, 3-(6-(3-Cyanophenyl)-3H-imidazo[4,5-b]pyridin-2-yl)pyrrolidine-1-carbonitrile] gave an IC50 of 100 to 1000 nM.
`CCc1cccc(-c2ccc3oc([C@@H]4CCCN4C#N)nc3c2)c1` [Example 129, (S)-2-(5-(3-Ethylphenyl)benzo[d]oxazol-2-yl)pyrrolidine-1-carbonitrile] gave an IC50 of 100 to 1000 nM.
For `N#CN1CCC(c2cc(-c3cccc(N4CCCCC4)c3)n[nH]2)C1` (centres unmarked) [Example 12, 3-(3-(3-(Piperidin-1-yl)phenyl)-1H-pyrazol-5-yl)pyrrolidine-1-carbonitrile], the IC50 was 100 to 1000 nM.
Work on `N#CN1CCC(c2cc(-c3cccc(-c4cccnc4)c3)n[nH]2)C1` (centres unmarked) [Example 26, 3-(3-(3-(Pyridin-3-yl)phenyl)-1H-pyrazol-5-yl)pyrrolidine-1-carbonitrile] yielded an IC50 of 100 to 1000 nM.
`CNC(=O)c1cccc(-c2cnc3[nH]c(C4CCN(C#N)C4)nc3c2)c1` (single isomer, unassigned) [Example 93, 3-(2-(1-Cyanopyrrolidin-3-yl)-3H-imidazo[4,5-b]pyridin-6-yl)-N-methylbenzamide] was tested, and the IC50 was 100 to 1000 nM.
Work on `N#CN1CCC(c2cc(-c3cccc(-c4ccccc4)c3)no2)C1` (single isomer, unassigned) [Example 119, 3-(3-([1,1′-Biphenyl]-3-yl)isoxazol-5-yl)pyrrolidine-1-carbonitrile] yielded an IC50 of under 100 nM.
In the case of `N#CN1CCC[C@H]1c1nc2cc(-c3cccc(OC(F)(F)F)c3)ccc2o1` [Example 133, (S)-2-(5-(3-(Trifluoromethoxy)phenyl)-benzo[d]oxazol-2-yl)pyrrolidine-1-carbonitrile], the IC50 is reported as 100 to 1000 nM.
For `N#CN1CCC(c2cc(-c3ccc(-c4ncccn4)cn3)n[nH]2)C1` (centres unmarked) [Example 195, 3-(3-(5-(Pyrimidin-2-yl)pyridin-2-yl)-1H-pyrazol-5-yl)pyrrolidine-1-carbonitrile], the IC50 was under 100 nM.
Work on `Cc1ccc2cc(-c3nc(C4CCN(C#N)C4)no3)ccc2n1` (centres unmarked) [Example 56, 3-(5-(2-Methylquinolin-6-yl)-1,2,4-oxadiazol-3-yl)pyrrolidine-1-carbonitrile] yielded an IC50 of 1000 to 10000 nM.
With `N#CN1CCC(c2cc(-c3ccnc(-c4ccccc4)c3)[nH]n2)C1` (centres unmarked) [Example 38, 3-(5-(2-Phenylpyridin-4-yl)-1H-pyrazol-3-yl)pyrrolidine-1-carbonitrile] the IC50 was 100 to 1000 nM.
In the case of `N#CN1CCC(c2n[nH]c(-c3cccc(-c4ccccc4)c3)n2)C1` (centres unmarked) [Example 111, 3-(3-([1,1′-Biphenyl]-3-yl)-1H-1,2,4-triazol-5-yl)pyrrolidine-1-carbonitrile], the IC50 is reported as under 100 nM.
Molecule `N#Cc1ccc(C2CN(c3noc(C4CCN(C#N)C4)n3)C2)cc1` (centres unmarked) [Example 198, 3-(3-(3-(4-Cyanophenyl)azetidin-1-yl)-1,2,4-oxadiazol-5-yl)pyrrolidine-1-carbonitrile] has an IC50 of 100 to 1000 nM.
Work on `N#Cc1cnn(-c2ccnc(-c3nc([C@@H]4CCCN4C#N)no3)c2)c1` [Example 191, (S)-1-(2-(3-(1-Cyanopyrrolidin-2-yl)-1,2,4-oxadiazol-5-yl)pyridin-4-yl)-1H-pyrazole-4-carbonitrile] yielded an IC50 of 1000 to 10000 nM.
`N#Cc1cccc(-c2ccc3nc([C@@H]4CCCN4C#N)oc3c2)n1` [Example 132, (S)-6-(2-(1-Cyanopyrrolidin-2-yl)benzo[d]oxazol-6-yl)picolinonitrile] gave an IC50 of 1000 to 10000 nM.
Molecule `CC(C)Oc1ccc(-c2ccc3nc(C4CCN(C#N)C4)[nH]c3c2)cn1` (centres unmarked) [Example 77, 3-(6-(6-Isopropoxypyridin-3-yl)-1H-benzo[d]imidazol-2-yl)pyrrolidine-1-carbonitrile] has an IC50 of 100 to 1000 nM.
`CNC(=O)c1ccc(-c2ccc3nc(C4CCN(C#N)C4)[nH]c3c2)cc1` (centres unmarked) [Example 75, 4-(2-(1-Cyanopyrrolidin-3-yl)-1H-benzo[d]imidazol-6-yl)-N-methylbenzamide] gave an IC50 of 100 to 1000 nM.
`N#CN1CCC(c2cc(NC(=O)Cc3ccccc3)n[nH]2)C1` (centres unmarked) [Example 51] gave an IC50 of 100 to 1000 nM.
`Cc1c(-c2ccccc2)cnc2nc(C3CCN(C#N)C3)[nH]c12` (centres unmarked) [Example 100, 3-(7-Methyl-6-phenyl-3H-imidazo[4,5-b]pyridin-2-yl)pyrrolidine-1-carbonitrile] gave an IC50 of 100 to 1000 nM.
With `N#CN1CCC(c2nc3cc(-c4ccncc4)cnc3[nH]2)C1` (single isomer, unassigned) [Example 81, 3-(6-(Pyridin-4-yl)-3H-imidazo[4,5-b]pyridin-2-yl)pyrrolidine-1-carbonitrile] the IC50 was 100 to 1000 nM.
Work on `Cc1n[nH]c2cc(-c3ccc4oc([C@@H]5CCCN5C#N)nc4c3)ccc12` [Example 134, (S)-2-(5-(3-Methyl-1H-indazol-6-yl)-benzo[d]oxazol-2-yl)pyrrolidine-1-carbonitrile] yielded an IC50 of 1000 to 10000 nM.
Molecule `N#CN1CCC(c2cc(-c3cccc(-c4ccccc4)c3)no2)C1` (centres unmarked) [Example 117, 3-(3-([1,1′-Biphenyl]-3-yl)isoxazol-5-yl)pyrrolidine-1-carbonitrile] has an IC50 of under 100 nM.
In the case of `COc1cc(-c2nc(C3CCN(C#N)C3)no2)nc2ccccc12` (centres unmarked) [Example 58, 3-(5-(4-Methoxyquinolin-2-yl)-1,2,4-oxadiazol-3-yl)pyrrolidine-1-carbonitrile], the IC50 is reported as 1000 to 10000 nM.
With `Cn1cnc(-c2cccc(-c3cc(C4CCN(C#N)C4)n[nH]3)c2)c1` (centres unmarked) [Example 34, 3-(5-(3-(1-Methyl-1H-imidazol-4-yl)phenyl)-1H-pyrazol-3-yl)pyrrolidine-1-carbonitrile] the IC50 was 1000 to 10000 nM.
`COc1ccc(C#N)cc1-c1cccc(-c2nc(C3CCCN3C#N)no2)c1` (centres unmarked) [Example 146, 2-(5-(5′-Cyano-2′-methoxy-[1,1′-biphenyl]-3-yl)-1,2,4-oxadiazol-3-yl)pyrrolidine-1-carbonitrile] was tested, and the IC50 was 100 to 1000 nM.
Work on `N#CN1CCC(c2noc(-c3ccc(Br)cc3)n2)C1` (centres unmarked) [Example 60, 3-(5-(4-Bromophenyl)-1,2,4-oxadiazol-3-yl)pyrrolidine-1-carbonitrile] yielded an IC50 of 1000 to 10000 nM.
For `N#CN1CCC(c2nnc(-c3cccc(-c4ccccc4)n3)[nH]2)C1` (centres unmarked) [Example 110, 3-(5-(6-Phenylpyridin-2-yl)-4H-1,2,4-triazol-3-yl)pyrrolidine-1-carbonitrile], the IC50 was 100 to 1000 nM.
In the case of `N#CN1CCC(c2cc(NC(=O)c3ccccc3)n[nH]2)C1` (centres unmarked) [Example 50, N-(3-(1-Cyanopyrrolidin-3-yl)-1H-pyrazol-5-yl)benzamide], the IC50 is reported as 100 to 1000 nM.
`N#Cc1ccccc1-c1cccc(-c2nc(C3CCCN3C#N)no2)c1` (centres unmarked) [Example 155, 2-(5-(2′-Cyano-[1,1′-biphenyl]-3-yl)-1,2,4-oxadiazol-3-yl)pyrrolidine-1-carbonitrile] gave an IC50 of 100 to 1000 nM.
`N#CN1CCCC1c1noc(-c2ccnc(-c3cccc(OC(F)(F)F)c3)n2)n1` (centres unmarked) [Example 184, 2-(5-(2-(3-(Trifluoromethoxy)phenyl)pyrimidin-4-yl)-1,2,4-oxadiazol-3-yl)pyrrolidine-1-carbonitrile] showed an IC50 of under 100 nM.
With `Cc1cc(-c2cc(C3CCN(C#N)C3)[nH]n2)ccn1` (centres unmarked) [Example 11, 3-(3-(2-Methylpyridin-4-yl)-1H-pyrazol-5-yl)pyrrolidine-1-carbonitrile] the IC50 was 1000 to 10000 nM.
Work on `N#CN1CC[C@@H](c2noc(-c3ccnc(N4CCc5ccccc5C4)c3)n2)C1` [Example 65, (R)-3-(5-(2-(3,4-Dihydroisoquinolin-2(1H)-yl)pyridin-4-yl)-1,2,4-oxadiazol-3-yl)pyrrolidine-1-carbonitrile] yielded an IC50 of 1000 to 10000 nM.
`CC(=O)Nc1ccc(-c2cc(C3CCN(C#N)C3)[nH]n2)cc1` (centres unmarked) [Example 9, N-(4-(5-(1-Cyanopyrrolidin-3-yl)-1H-pyrazol-3-yl)phenyl)acetamide] was tested, and the IC50 was 1000 to 10000 nM.
With `N#Cc1cccc(-c2cc(C3CCN(C#N)C3)[nH]n2)c1` (centres unmarked) [Example 1, 3-(3-(3-Cyanophenyl)-1H-pyrazol-5-yl)pyrrolidine-1-carbonitrile] the IC50 was 100 to 1000 nM.
`N#Cc1cccc(-c2cc(-c3nc(C4CCCN4C#N)no3)ncn2)c1` (centres unmarked) [Example 189, 2-(5-(6-(3-Cyanophenyl)pyrimidin-4-yl)-1,2,4-oxadiazol-3-yl)pyrrolidine-1-carbonitrile] gave an IC50 of 100 to 1000 nM.
For `N#Cc1cccc(-c2ccc3oc([C@@H]4CCCN4C#N)nc3c2)c1F` [Example 137, (S)-2-(5-(3-Cyano-2-fluorophenyl)-benzo[d]oxazol-2-yl)pyrrolidine-1-carbonitrile], the IC50 was 1000 to 10000 nM.
In the case of `N#Cc1ccc(-c2nccc(-c3nc([C@@H]4CCCN4C#N)no3)n2)cc1` [Example 185, (S)-2-(5-(2-(4-Cyanophenyl)pyrimidin-4-yl)-1,2,4-oxadiazol-3-yl)pyrrolidine-1-carbonitrile], the IC50 is reported as 100 to 1000 nM.
Work on `COc1cc(-c2nc([C@@H]3CCN(C#N)C3)no2)ccc1-c1cnn(C)c1` [Example 71, (R)-3-(5-(3-Methoxy-4-(1-methyl-1H-pyrazol-4-yl)phenyl)-1,2,4-oxadiazol-3-yl)pyrrolidine-1-carbonitrile] yielded an IC50 of 100 to 1000 nM.
For `CO[C@@H]1CCN(c2ccc(-c3nc(C4CCN(C#N)C4)no3)cc2)C1` (stereo partly drawn) [Example 62, 3-(5-(4-((R)-3-Methoxypyrrolidin-1-yl)phenyl)-1,2,4-oxadiazol-3-yl)pyrrolidine-1-carbonitrile], the IC50 was 1000 to 10000 nM.
With `CNC(=O)c1cccc(-c2cc(-c3nc(C4CCCN4C#N)no3)ccn2)c1` (centres unmarked) [Example 171, 3-(4-(3-(1-Cyanopyrrolidin-2-yl)-1,2,4-oxadiazol-5-yl)pyridin-2-yl)-N-methylbenzamide] the IC50 was 1000 to 10000 nM.
`N#Cc1cc(-c2cccc(-c3nc([C@@H]4CCCN4C#N)no3)n2)ccn1` [Example 183, (S)-6-(3-(1-Cyanopyrrolidin-2-yl)-1,2,4-oxadiazol-5-yl)-[2,4′-bipyridine]-2 carbonitrile] was tested, and the IC50 was under 100 nM.
For `N#CN1CCCC1c1noc(-c2ccnc(-c3ccc(OC(F)(F)F)cc3)c2)n1` (centres unmarked) [Example 169, 2-(5-(2-(4-(Trifluoromethoxy)phenyl)-pyridin-4-yl)-1,2,4-oxadiazol-3-yl)pyrrolidine-1-carbonitrile], the IC50 was 1000 to 10000 nM.
